Here are results for one compound from ChEMBL document CHEMBL6087454, “Identification of Novel Organo-Se BTSA-Based Derivatives as Potent, Reversible, and Selective PPARγ Covalent Modulators for Antidiabetic Drug Discovery” (J Med Chem, 2025).

In test [1] the test system is Mus musculus. Nature of the test: Antidiabetic activity in male db/db mouse model assessed as downregulation of CD36 gene expression in white adipose tissue at 2.5 to 10 mg/kg/day, ip administered for 4 weeks by RT-qPCR analysis. The test is classed as functional, organism-based. The settings on record: dose 2.5-10 mg/kg/day. (In general: Real-time PCR tracks product formation cycle by cycle.)

The subject of test [2] is Mus musculus. The experiment in a line: Antidiabetic activity in male db/db mouse model assessed as increase in ADIPOQ protein abundance in white adipose tissue at 2.5 to 10 mg/kg/day, ip administered for 4 weeks by Western blotting analysis. Type of test: functional, organism-based. The settings on record: dose 2.5-10 mg/kg/day.
Test [3] relates to Mus musculus. The experiment in a line: Antidiabetic activity in male db/db mouse model assessed as downregulation of aP2 gene expression in white adipose tissue at 2.5 to 10 mg/kg/day, ip administered for 4 weeks by RT-qPCR analysis. Type of test: functional, organism-based. Conditions: dose 2.5-10 mg/kg/day.
In test [4] the test system is Mus musculus. The experiment in a line: Antidiabetic activity in male db/db mouse model assessed as downregulation of C/EBPalpha gene expression in liver at 2.5 to 10 mg/kg/day, ip administered for 4 weeks by RT-qPCR analysis. The test is classed as functional, organism-based. The settings on record: dose 2.5-10 mg/kg/day.
Test [5] relates to Mus musculus. Nature of the test: In vivo inhibition of Erk/Cdk5-mediated PPAR-gamma phosphorylation at Ser273 residue in male db/db mouse model assessed as decrease in phosphorylated-MEK expression in liver at 2.5 to 10 mg/kg/day, ip administered for 4 weeks by Western blotting analysis. Type of test: functional, organism-based. Conditions: dose 2.5-10 mg/kg/day. (Immunoblotting shows a protein as a band on a membrane.)

The test system of a further test is 3T3-L1. Nature of the test: Inhibition of adipocyte differentiation in mouse 3T3-L1 cells assessed as reduction in lipid accumulation at 1 uM measured after 48 hrs by Oil red O staining based inverted microscopic analysis. Type of test: functional, cell-based.
The test system of test [6] is Mus musculus. Nature of the test: Antidiabetic activity in male db/db mouse model assessed as downregulation of FASN gene expression in white adipose tissue at 2.5 to 10 mg/kg/day, ip administered for 4 weeks by RT-qPCR analysis. Type of test: functional, organism-based. Conditions: dose 2.5-10 mg/kg/day.
The subject of test [7] is Mus musculus. The experiment in a line: In vivo inhibition of Erk/Cdk5-mediated PPAR-gamma phosphorylation at Ser273 residue in male db/db mouse model assessed as decrease in phosphorylated-ERK expression in white adipose tissue at 2.5 to 10 mg/kg/day, ip administered for 4 weeks by Western blotting analysis. Type of test: functional, organism-based. Conditions: dose 2.5-10 mg/kg/day.

The test system of test [8] is Mus musculus. Nature of the test: Effect on pRb protein expression in male db/db mouse liver at 2.5 to 10 mg/kg/day, ip administered for 4 weeks by Western blotting analysis. Conditions: dose 2.5-10 mg/kg/day. The test is classed as functional, organism-based.
The target in test [9] is T1, Peroxisome proliferator-activated receptor gamma (Homo sapiens, UniProt P37231).
T1 sequence (P37231 whole entry): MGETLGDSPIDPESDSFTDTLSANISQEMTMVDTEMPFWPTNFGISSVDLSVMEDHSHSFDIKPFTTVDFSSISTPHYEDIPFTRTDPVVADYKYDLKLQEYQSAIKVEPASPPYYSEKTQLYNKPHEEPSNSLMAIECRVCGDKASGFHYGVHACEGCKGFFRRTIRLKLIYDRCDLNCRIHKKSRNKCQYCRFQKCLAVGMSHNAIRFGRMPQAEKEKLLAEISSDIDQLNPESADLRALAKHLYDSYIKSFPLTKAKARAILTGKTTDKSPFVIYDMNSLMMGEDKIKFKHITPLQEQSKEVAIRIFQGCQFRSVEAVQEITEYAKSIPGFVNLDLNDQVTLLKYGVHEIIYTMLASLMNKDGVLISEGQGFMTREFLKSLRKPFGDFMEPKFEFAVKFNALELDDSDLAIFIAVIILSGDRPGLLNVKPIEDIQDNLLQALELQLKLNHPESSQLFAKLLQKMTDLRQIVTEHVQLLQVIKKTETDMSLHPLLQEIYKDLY
The experiment in a line: Displacement of fluormone pan-PPAR green from recombinant GST-tagged human PPAR-gamma ligand binding domain (E235 to Y505 residues) extracted from Escherichia coli BL21 (DE3) cells by TR-FRET assay.

A word on the IC50: it is the concentration that gives 50% inhibition.

The source made the active and inactive calls. The rule behind the calls is not given here.

As to `Cc1ccc(S(=O)(=O)Oc2ccc(S3(=O)=N[Se]c4cc(OS(=O)(=O)c5ccc(C)cc5)ccc43)cc2)cc1` (stereo not given), the outcome in the test on Mus musculus [1], with Mus musculus [2], in the test with Mus musculus [3], in the test with Mus musculus [4] and in the test on Mus musculus [6] was Active. Besides, the inhibition entry with Mus musculus [5], in the test with 3T3-L1 and in the test with Mus musculus [7] was “Active” throughout. Besides, in the test with Mus musculus [8], the result was inactive. Also, the IC50 in test [9] amounted to 346 nM.
